Assay results from patent US20060194837A1, “Tetrahydroisoquinoline compounds” (priority 2004, published 2006).
Like-named read-outs stand apart in the source and are kept apart here.

Key:
[1] = biological target: T1, human SERT (Homo sapiens, UniProt P31645); assay: Human SERT binding (3H-citalopram displacement); conditions: HEK293 membranes expressing human SERT, rt 1 h
T1 construct: expressed in transfected cells; host or cells: HEK293 membranes
Procedure: Homogenized HEK293 (Human Embryonic Kidney) membranes expressing the human SERT were incubated with ^3H-citalopram (SERT) at rt for 1 h in 50 mM Tris, 120 mM NaCl, 5 mM KCl (pH 7.4). […] The membranes were washed and the radioactivity was counted as above.

[2] = biological target: T2, Rat SERT (Rattus norvegicus, UniProt P31652); assay: Rat brain SERT binding ([3H]-citalopram displacement); conditions: rat brain membranes without cerebellum, 0.6 nM [3H]-citalopram, 60 min at 25° C.
T2 construct: A rat brain without cerebellum (Zivic Laboratories, Inc.—Pittsburgh, Pa.) was homogenized; tissue Zivic Laboratories, Inc; host or cells: rat brain without cerebellum, membranes
T2 sequence (P31652 whole entry): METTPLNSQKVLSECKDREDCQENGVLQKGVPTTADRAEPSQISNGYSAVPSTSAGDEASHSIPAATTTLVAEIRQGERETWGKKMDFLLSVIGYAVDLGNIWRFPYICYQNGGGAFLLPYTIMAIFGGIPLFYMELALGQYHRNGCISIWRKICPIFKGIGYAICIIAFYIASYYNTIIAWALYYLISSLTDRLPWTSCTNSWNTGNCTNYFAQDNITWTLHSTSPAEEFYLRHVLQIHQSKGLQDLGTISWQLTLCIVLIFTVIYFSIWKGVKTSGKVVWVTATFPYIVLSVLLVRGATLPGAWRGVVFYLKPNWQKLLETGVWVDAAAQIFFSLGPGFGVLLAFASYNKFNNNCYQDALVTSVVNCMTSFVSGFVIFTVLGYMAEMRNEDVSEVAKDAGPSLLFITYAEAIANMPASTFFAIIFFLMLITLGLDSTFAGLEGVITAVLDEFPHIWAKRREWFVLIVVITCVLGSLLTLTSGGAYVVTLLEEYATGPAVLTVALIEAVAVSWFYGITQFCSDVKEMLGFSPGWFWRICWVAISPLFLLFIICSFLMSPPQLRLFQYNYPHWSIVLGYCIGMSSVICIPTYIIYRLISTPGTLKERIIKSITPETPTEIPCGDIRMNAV
Procedure: The supernatant was removed and re-centrifuged at 15,000 rpm for 30 min. […] Membranes were incubated with 0.6 nM [^3H]-Citalopram plus/minus test compounds for 60 min at 25° C. and harvested by rapid filtration over GF/C glass fiber filters (pretreated with 0.3% polyethylenimine) followed by four washes with ice-cold buffer.

[3] = biological target: T3, human H3 receptor (Homo sapiens, UniProt Q9Y5N1); assay: H3 receptor binding (N-[3H]-α-methylhistamine displacement); conditions: membranes of SK-N-MC cells expressing cloned human H3 receptor, 0.8 nM N-[3H]-α-methylhistamine, 60 min at 25° C.
T3 construct: expressed in transfected cells
T3 sequence (Q9Y5N1 whole entry): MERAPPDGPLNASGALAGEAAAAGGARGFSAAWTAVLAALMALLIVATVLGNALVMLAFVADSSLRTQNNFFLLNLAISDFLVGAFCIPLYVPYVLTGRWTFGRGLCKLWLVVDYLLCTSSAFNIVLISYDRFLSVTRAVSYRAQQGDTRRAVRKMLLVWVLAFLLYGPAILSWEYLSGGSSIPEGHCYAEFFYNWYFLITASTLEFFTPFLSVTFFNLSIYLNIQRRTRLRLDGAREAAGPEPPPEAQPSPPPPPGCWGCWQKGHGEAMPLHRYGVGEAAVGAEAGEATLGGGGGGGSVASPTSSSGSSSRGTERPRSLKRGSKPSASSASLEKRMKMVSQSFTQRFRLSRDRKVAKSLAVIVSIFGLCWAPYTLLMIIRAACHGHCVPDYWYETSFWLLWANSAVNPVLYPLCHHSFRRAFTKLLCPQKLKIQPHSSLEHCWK

T1 sequence (P31645 whole entry): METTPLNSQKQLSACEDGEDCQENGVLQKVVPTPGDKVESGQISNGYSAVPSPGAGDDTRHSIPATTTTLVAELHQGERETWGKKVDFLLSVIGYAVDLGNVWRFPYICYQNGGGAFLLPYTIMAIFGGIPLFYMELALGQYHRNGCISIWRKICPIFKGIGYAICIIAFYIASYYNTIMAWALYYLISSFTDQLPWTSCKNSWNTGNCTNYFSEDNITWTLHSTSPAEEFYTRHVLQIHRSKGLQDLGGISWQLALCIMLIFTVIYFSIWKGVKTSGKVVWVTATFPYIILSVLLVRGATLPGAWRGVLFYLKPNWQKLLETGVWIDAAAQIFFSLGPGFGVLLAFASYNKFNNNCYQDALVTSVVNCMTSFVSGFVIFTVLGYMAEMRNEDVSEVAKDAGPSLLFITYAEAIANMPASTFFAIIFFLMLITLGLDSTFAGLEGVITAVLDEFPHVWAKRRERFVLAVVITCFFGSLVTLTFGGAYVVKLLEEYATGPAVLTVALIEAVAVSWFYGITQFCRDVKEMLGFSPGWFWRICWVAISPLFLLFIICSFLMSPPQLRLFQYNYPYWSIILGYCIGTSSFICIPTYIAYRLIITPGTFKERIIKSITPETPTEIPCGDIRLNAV

| Compound | Ki [1] [nM] | Ki ([2]; read-out: Rat SERT Ki) [nM] | Ki ([2]; Rat SERT Ki (nM)) [nM] | Ki [3] [nM] |
| --- | --- | --- | --- | --- |
| CSc1ccc(C2CN(C)Cc3cc(OCCCN4CCC(F)CC4)ccc32)cc1 (stereo not drawn) [Example 52, 7-[3-(4-Fluoro-piperidin-1-yl)-propoxy]-2-methyl-4-(4-methylsulfanyl-phenyl)-1,2,3,4-tetrahydro-isoquinoline] | 2 | 3 | – | – |
| CSc1ccc(C2CN(C)Cc3cc(OCCCN4CCC(F)CC4)ccc32)cc1 (single isomer, unassigned) [Example 153, 7-[3-(4-Fluoro-piperidin-1-yl)-propoxy]-2-methyl-4-(4-methylsulfanyl-phenyl)-1,2,3,4-tetrahydro-isoquinoline] | 2 | – | 2 | – |
| COc1ccc(C2CN(C)Cc3cc(OCCCN4CCC(F)CC4)ccc32)cc1Cl (stereo not drawn) [Example 53, 4-(3-Chloro-4-methoxy-phenyl)-7-[3-(4-fluoro-piperidin-1-yl)-propoxy]-2-methyl-1,2,3,4-tetrahydro-isoquinoline] | 4 | 5 | – | – |
| COc1ccc(C2CN(C)Cc3cc(OCCCN4CCCC(F)(F)C4)ccc32)cc1 (single isomer, unassigned) [Example 29A, 7-[3-(3,3-Difluoro-piperidin-1-yl)-propoxy]-4-(4-methoxy-phenyl)-2-methyl-1,2,3,4-tetrahydro-isoquinoline] | 13 | – | – | – |
| COc1ccc(C2CN(C)Cc3cc(OCCCN4CCC(F)CC4)ccc32)cc1 (single isomer, unassigned) [Example 1A, 7-[3-(4-Fluoro-piperidin-1-yl)-propoxy]-4-(4-methoxy-phenyl)-2-methyl-1,2,3,4-tetrahydro-isoquinoline] | 9 | 6 | – | – |
| CN1Cc2cc(OCCCN3CCC(F)CC3)ccc2C(c2ccc(S(C)(=O)=O)cc2)C1 (stereo not drawn) [Example 51, 7-[3-(4-Fluoro-piperidin-1-yl)-propoxy]-4-(4-methanesulfonyl-phenyl)-2-methyl-1,2,3,4-tetrahydro-isoquinoline] | 103 | 34 | – | – |
| COc1ccc(C2CN(C)Cc3cc(OCCCN4CCCC(F)(F)C4)ccc32)cc1 (single isomer, unassigned) [Example 29B, 7-[3-(3,3-Difluoro-piperidin-1-yl)-propoxy]-4-(4-methoxy-phenyl)-2-methyl-1,2,3,4-tetrahydro-isoquinoline] | 6 | 8 | – | – |
| COc1ccc(C2CN(C)Cc3cc(OCCCN4CCCC(F)(F)C4)ccc32)cc1 (racemic) [Example 29, 7-[3-(3,3-Difluoro-piperidin-1-yl)-propoxy]-4-(4-methoxy-phenyl)-2-methyl-1,2,3,4-tetrahydro-isoquinoline] | 8 | 14 | – | – |
| COc1ccc(C2CN(C)Cc3cc(OCCCN4CCC4)ccc32)cc1 (stereo not drawn) [Example 34, 7-(3-Azetidin-1-yl-propoxy)-4-(4-methoxy-phenyl)-2-methyl-1,2,3,4-tetrahydro-isoquinoline] | 4 | 11 | – | – |
| CSc1ccc(C2CN(C)Cc3cc(OCCCN4CCC(F)CC4)ccc32)cc1 (single isomer, unassigned) [Example 154, 7-[3-(4-Fluoro-piperidin-1-yl)-propoxy]-2-methyl-4-(4-methylsulfanyl-phenyl)-1,2,3,4-tetrahydro-isoquinoline] | 4 | – | 5 | – |
| COc1ccc(C2CN(C)Cc3cc(OCCCN4CCC(F)CC4)ccc32)cc1 (single isomer, unassigned) [Example 1B, 7-[3-(4-Fluoro-piperidin-1-yl)-propoxy]-4-(4-methoxy-phenyl)-2-methyl-1,2,3,4-tetrahydro-isoquinoline] | 3 | 2 | – | – |
| COc1ccc(C2CN(C)Cc3cc(OC[C@H]4CN(C5CC5)CCO4)ccc32)cc1 (mixture of isomers) [Example 261, 7-(4-Cyclopropyl-morpholin-2R-ylmethoxy)-4-(4-methoxy-phenyl)-2-methyl-1,2,3,4-tetrahydro-isoquinoline] | – | 32 | – | 62 |
| COc1ccc(C2CN(C)Cc3cc(OCC4CCN(CC(F)(F)F)CC4)ccc32)cc1 (stereo not drawn) [Example 123, 4-(4-Methoxy-phenyl)-2-methyl-7-[1-(2,2,2-trifluoro-ethyl)-piperidin-4-ylmethoxy]-1,2,3,4-tetrahydroisoquinoline] | – | 18 | – | 346 |
| CSc1ccc(C2CN(C)Cc3cc(OC4CCNCC4)ccc32)cc1 (stereo not drawn) [Example 149, 2-Methyl-4-(4-methylsulfanyl-phenyl)-7-(piperidin-4-yloxy)-1,2,3,4-tetrahydro-isoquinoline] | – | 4 | – | 240 |
| COc1ccc(C2CN(C)Cc3cc(OCCCN4CCOCC4)c(C)cc32)cc1 (stereo not drawn) [Example 266, 4-(4-Methoxy-phenyl)-2,6-dimethyl-7-(3-morpholin-4-yl-propoxy)-1,2,3,4-tetrahydro-isoquinoline] | – | 31 | – | 14 |
| COc1ccc(C2CN(C)Cc3cc(OCCCN4C=NCCC4)ccc32)cc1 (stereo not drawn) [Example 18, 7-[3-(5,6-Dihydro-4H-pyrimidin-1-yl)-propoxy]-4-(4-methoxy-phenyl)-2-methyl-1,2,3,4-tetrahydro-isoquinoline] | – | 1 | – | 74 |
| COc1ccc(C2CN(Cc3ccccc3)Cc3cc(OCCCN4CCC(F)CC4)ccc32)cc1 (stereo not drawn) [Example 127, 2-Benzyl-7-[3-(4-fluoro-piperidin-1-yl)-propoxy]-4-(4-methoxy-phenyl)-1,2,3,4-tetrahydro-isoquinoline] | – | 5000 | – | 39 |
| COc1ccc(C2CN(C)Cc3cc(OCC4CCN(C5CCCC5)CC4)ccc32)cc1 (stereo not drawn) [Example 86, 7-(1-Cyclopentyl-piperidin-4-ylmethoxy)-4-(4-methoxy-phenyl)-2-methyl-1,2,3,4-tetrahydro-isoquinoline] | – | 5 | – | 11 |
| COc1ccc(C2CN(C)Cc3cc(OCCCN4CCC(F)CC4)ccc32)cc1 (racemic) [Example 1, 7-[3-(4-Fluoro-piperidin-1-yl)-propoxy]-4-(4-methoxy-phenyl)-2-methyl-1,2,3,4-tetrahydro-isoquinoline] | 3 | 2 | – | – |
| CN1Cc2cc(OCCCN3CCC(F)CC3)ccc2C(c2ccc(N(C)C)nc2)C1 (stereo not drawn) [Example 188, (5-{7-[3-(4-Fluoro-piperidin-1-yl)-propoxy]-2-methyl-1,2,3,4-tetrahydro-isoquinolin-4-yl}-pyridin-2-yl)-dimethyl-amine] | – | 37 | – | 22 |
| CCN1CCC(COc2ccc3c(c2)CN(C)CC3c2ccc(OC)c(Cl)c2)CC1 (stereo not drawn) [Example 107, 4-(3-Chloro-4-methoxy-phenyl)-7-(1-ethyl-piperidin-4-ylmethoxy)-2-methyl-1,2,3,4-tetrahydro-isoquinoline] | – | 10 | – | 5 |
| CCN1CCC(COc2ccc3c(c2)CN(C)CC3c2ccc(SC)cc2)CC1 (stereo not drawn) [Example 105, 7-(1-Ethyl-piperidin-4-ylmethoxy)-2-methyl-4-(4-methylsulfanyl-phenyl)-1,2,3,4-tetrahydro-isoquinoline] | – | 6 | – | 5 |
| COc1ccc(C2CN(C)Cc3cc(OCCCN4CCN(CC5CCCO5)CC4)ccc32)cc1 (stereo not drawn) [Example 210, 4-(4-Methoxy-phenyl)-2-methyl-7-{3-[4-(tetrahydro-furan-2-ylmethyl)-piperazin-1-yl]-propoxy}-1,2,3,4-tetrahydro-isoquinoline] | – | 10 | – | 99 |
| COc1ccc(C2CN(C)Cc3cc(OCCCN4CCN(CCO)CC4)ccc32)cc1 (stereo not drawn) [Example 202, 2-(4-{3-[4-(4-Methoxy-phenyl)-2-methyl-1,2,3,4-tetrahydro-isoquinolin-7-yloxy]-propyl}-piperazin-1-yl)-ethanol] | – | 3 | – | 43 |
| COc1ccc(C2CN(C)Cc3c2ccc(OCCCN2CCOCC2)c3C)cc1F (stereo not drawn) [Example 268, 4-(3-Fluoro-4-methoxy-phenyl)-2,8-dimethyl-7-(3-morpholin-4-yl-propoxy)-1,2,3,4-tetrahydro-isoquinoline] | – | 12 | – | 18 |
| CSc1ccc(C2CN(C)Cc3cc(OCC4CCNCC4)ccc32)cc1 (stereo not drawn) [Example 80, 2-Methyl-4-(4-methylsulfanyl-phenyl)-7-(piperidin-4-ylmethoxy)-1,2,3,4-tetrahydro-isoquinoline] | – | 3 | – | 130 |
| COc1ccc(C2CN(C)Cc3cc(OC4CCN(C(C)C)CC4)ccc32)c(F)c1 (stereo not drawn) [Example 119, 4-(2-Fluoro-4-methoxy-phenyl)-7-(1-isopropyl-piperidin-4-yloxy)-2-methyl-1,2,3,4-tetrahydro-isoquinoline] | – | 9 | – | 1 |
| CN1Cc2cc(OCCCN3CCC(F)CC3)ccc2C(c2ccc(Sc3ncccn3)nc2)C1 (stereo not drawn) [Example 196, 7-[3-(4-Fluoro-piperidin-1-yl)-propoxy]-2-methyl-4-[6-(pyrimidin-2-ylsulfanyl)-pyridin-3-yl]-1,2,3,4-tetrahydro-isoquinoline] | – | 2000 | – | 4 |
| COc1ccc(C2CN(C)Cc3cc(OC[C@H]4CN(C5CC5)CCO4)ccc32)cc1 (single isomer, unassigned) [Example 261A, 7-(4-Cyclopropyl-morpholin-2R-ylmethoxy)-4-(4-methoxy-phenyl)-2-methyl-1,2,3,4-tetrahydro-isoquinoline] | – | 32 | – | 73 |
